This passage reports IC50 results from patent publication EP2951180B1, “2,6,7,8 SUBSTITUTED PURINES AS HDM2 INHIBITORS” (Merck Sharp & Dohme Corp., priority 2013, dated 2014).

SMILES strings stand for the structures.

The test deals with T1, HDM2 (Homo sapiens, UniProt Q00987).
T1 construct: Thioredoxin (N); made in house; host or cells: E. coli strain BL21(DE3)Rosetta
T1 sequence (Q00987 17-125): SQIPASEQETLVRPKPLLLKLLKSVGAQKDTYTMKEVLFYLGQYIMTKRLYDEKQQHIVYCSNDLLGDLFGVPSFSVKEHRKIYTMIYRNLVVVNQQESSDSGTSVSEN
The test can be described thus: FRET assay (HDM2 inhibition; method not described in this part). The conditions noted are these: Table 1. The class given is binding.
For the compound `COc1ccc(C)nc1-c1nc2nc(C(=O)O)nc(N[C@H](C)C3CCC3)c2n1Cc1ccc(C(F)(F)F)cc1` [Example 1.23, 6-{[(1R)-1-cyclobutylethyl]amino}-8-(3-methoxy-6-methylpyridin-2-yl)-7-[4-(trifluoromethyl)benzyl]-7H-purine-2-carboxylic acid], the IC50 (as a rule, the point on the concentration scale where inhibition reaches its midpoint) came to 13.1 nM.

In turn, `C[C@@H](Nc1nc(C(=O)O)nc2nc(-c3ccc(S(C)(=O)=O)cc3)n(Cc3ccc(C(F)(F)F)cc3)c12)C1CCC1` [Example 1.24, 6-{[(1R)-1-cyclobutylethyl]amino}-8-[4-(methylsulfonyl)phenyl]-7-[4-(trifluoromethyl)benzyl] - 7H-purine-2-carboxylic acid] returned an IC50 of 112 nM.

Consider `Cc1cc2ncccc2cc1-c1nc2nc(C(=O)O)nc(N[C@H](C)C3CC3)c2n1Cc1ccc(C(F)(F)F)cc1` [Example 1.25, 6-{[(1R)-1-cyclopropylethyl]amino} -8-(7-methylquinolin-6-yl)-7-[4-(trifluoromethyl)benzyl]-7H-purine-2-carboxylic acid], for which the IC50 is 1070 nM.

As for `C[C@@H](Nc1nc(C(=O)O)nc2nc(-c3cc(-c4ccccc4)ccn3)n(Cc3ccc(C(F)(F)F)cc3)c12)C1CCC1` [Example 1.26, 6-{[(1R)-1-cyclobutylethyl]amino}-8-(4-phenylpyridin-2-yl)-7-[4-(trifluoromethyl)benzyl] - 7H-purine-2-carboxylic acid], the IC50 was determined as 12.1 nM.

`C[C@@H](Nc1nc(C(=O)O)nc2nc(-c3cc(C(C)(C)O)ccn3)n(Cc3ccc(C(F)(F)F)cc3)c12)C1CCC1` [Example 1.27, 6-{[(1R)-1-cyclobutylethyl]amino}-8-[4-(1-hydroxy-1-methylethyl)pyridin-2-yl]-7-[4-(trifluoromethyl)benzyl]-7H-purine-2-carboxylic acid] came in with an IC50 of 9.41 nM.

`CC(O)c1ccnc(-c2nc3nc(C(=O)O)nc(N[C@H](C)C4CCC4)c3n2Cc2ccc(C(F)(F)F)cc2)c1` (stereo partly drawn) [Example 1.28, 6-{[(1R)-1-cyclobutylethyl]amino}-8-[4-(1-hydroxyethyl)pyridin-2-yl]-7-[4-(trifluoromethyl)benzyl]-7H-purine-2-carboxylic acid] yielded an IC50 of 12.4 nM.

For `CCc1ccc(O)c(-c2nc3nc(C(=O)O)nc(N[C@H](C)C4CCC4)c3n2Cc2ccc(C(F)(F)F)cc2)c1` [Example 1.29, 6-{[(1R)-1-cyclobutylethyl]amino}-8-(5-ethyl-2-hydroxyphenyl)-7-[4-(trifluoromethyl)benzyl]-7H-purine-2-carboxylic acid], the midpoint of inhibition, the IC50, lay at 46.1 nM.

`COCOc1ccc(C(C)C)cc1-c1nc2nc(C(=O)O)nc(N[C@H](C)C3CCC3)c2n1Cc1ccc(C(F)(F)F)cc1` [Example 1.30, 6-{[(1R)-1-cyclobutylethyl]amino}-8-[2-(methoxymethoxy)-5-(1-methylethyl)phenyl]-7-[4-(trifluoromethyl)benzyl]-7H-purine-2-carboxylic acid] gave an IC50 of 54.4 nM.

In turn, `CCc1ccc(OC)c(-c2nc3nc(C(=O)O)nc(N[C@H](C)C4CCC4)c3n2Cc2ccc(C(F)(F)F)cc2)c1` [Example 1.31, 6-{[(1R)-1-cyclobutylethyl]amino}-8-(5-ethyl-2-methoxyphenyl)-7-[4-(trifluoromethyl)benzyl]-7H-purine-2-carboxylic acid] gave an IC50 of 18.7 nM.

`CCOc1ccc(CC)cc1-c1nc2nc(C(=O)O)nc(N[C@H](C)C3CCC3)c2n1Cc1ccc(C(F)(F)F)cc1` [Example 1.32, 6-{[(1R)-1-cyclobutylethyl]amino}-8-(2-ethoxy-5-ethylphenyl)-7-[4-(trifluoromethyl)benzyl] - 7H-purine-2-carboxylic acid] gave an IC50 of 23.6 nM.

In the case of `CCOc1ccc(C(F)(F)F)cc1-c1nc2nc(C(=O)O)nc(N[C@H](C)C3CCC3)c2n1Cc1ccc(C(F)(F)F)cc1` [Example 1.33, 6-{[(1R)-1-cyclobutylethyl]amino}-8-[2-ethoxy-5-(trifluoromethyl)phenyl]-7-[4-(trifluoromethyl)benzyl] - 7H-purine-2-carboxylic acid], the IC50 amounted to 19.8 nM.

The compound `COc1ccc(C(F)(F)F)cc1-c1nc2nc(C(=O)O)nc(N[C@H](C)C3CCC3)c2n1Cc1ccc(C(F)(F)F)cc1` [Example 1.35, 6-{[(1R)-1-cyclobutylethyl]amino}-8-[2-methoxy-5-(trifluoromethyl)phenyl]-7-[4-(trifluoromethyl)benzyl] - 7H-purine-2-carboxylic acid] returned an IC50 of 27.8 nM.

As for `CCc1ccc(OCOC)c(-c2nc3nc(C(=O)O)nc(N[C@H](C)C4CCC4)c3n2Cc2ccc(C(F)(F)F)cc2)c1` [Example 1.36, 6-{[(1R)-1-cyclobutylethyl]amino}-8-[5-ethyl-2-(methoxymethoxy)pheny 1]-7-[4-(trifluoromethyl)benzyl]-7H-purine-2-carboxylic acid], inhibition was half-maximal at 23.1 nM (IC50).

In turn, `C[C@@H](Nc1nc(C(=O)O)nc2nc(-c3cccc(C(N)=O)c3)n(Cc3ccc(C(F)(F)F)cc3)c12)C1CCC1` [Example 1.37, 8-(3-carbamoylphenyl)-6-{[(1R)-1-cyclobutylethyl]amino}-7-[4-(trifluoromethyl)benzyl]-7H-purine-2-carboxylic acid] registered an IC50 of 49.4 nM.

On to `C[C@@H](Nc1nc(C(=O)O)nc2nc(-c3cc(C(F)(F)F)ccc3F)n(Cc3ccc(C(F)(F)F)cc3)c12)C1CCC1` [Example 1.38, 6-{[(1R)-1-cyclobutylethyl]amino}-8-[2-fluoro-5-(trifluoromethyl)phenyl] - 7-[4-(trifluoromethyl)benzyl]-7H-purine-2-carboxylic acid], for which half-maximal inhibition (IC50) was put at 27.5 nM.

`Cc1ccc(N(C)C)cc1-c1nc2nc(C(=O)O)nc(N[C@H](C)C3CCC3)c2n1Cc1ccc(C(F)(F)F)cc1` [Example 1.39, 6-{[(1R)-1-cyclobutylethyl]amino}-8-[5-(dimethylamino)-2-methylphenyl]-7-[4-(trifluoromethyl)benzyl]-7H-purine-2-carboxylic acid]: it took 58.5 nM to reach half-maximal inhibition (IC50).

On to `CCc1ccc(F)c(-c2nc3nc(C(=O)O)nc(N[C@H](C)C4CCC4)c3n2Cc2ccc(C(F)(F)F)cc2)c1` [Example 1.40, 6-{[(1R)-1-cyclobutylethyl]amino}-8-(5-ethyl-2-fluorophenyl)-7-[4-(trifluoromethyl)benzyl]-7H-purine-2-carboxylic acid], for which the IC50 came out at 33.8 nM.

The compound `COc1ccc(C(C)C)cc1-c1nc2nc(C(=O)O)nc(N[C@H](C)C3CCC3)c2n1Cc1ccc(C(F)(F)F)cc1` [Example 1.41, 6-{[(1R)-1-cyclobutylethyl]amino}-8-[2-methoxy-5-(1-methylethyl)phenyl]-7-[4-(trifluoromethyl)benzyl]-7H-purine-2-carboxylic acid] returned an IC50 of 27.5 nM.

`C[C@@H](Nc1nc(C(=O)O)nc2nc(-c3cc(N(C)C)ccc3O)n(Cc3ccc(C(F)(F)F)cc3)c12)C1CCC1` [Example 1.42, 6-{[(1R)-1-cyclobutylethyl]amino}-8-[5-(dimethylamino)-2-hydroxyphenyl]-7-[4-(trifluoromethyl)benzyl]-7H-purine-2-carboxylic acid] displayed an IC50 of 77 nM.

With `CCOc1ccnc(-c2nc3nc(C(=O)O)nc(N[C@H](C)C4CCC4)c3n2Cc2ccc(C(F)(F)F)cc2)c1` [Example 1.43, 6-{[(1R)-1-cyclobutylethyl]amino}-8-(4-ethoxypyridin-2-yl)-7-[4-(trifluoromethyl)benzyl] - 7H-purine-2-carboxylic acid], the concentration for half-maximal inhibition (IC50) came out at 11.8 nM.

For `C[C@@H](Nc1nc(C(=O)O)nc2nc(-c3cc(Cl)ccn3)n(Cc3ccc(C(F)(F)F)cc3)c12)C1CCC1` [Example 1.44, 8-(4-chloropyridin-2-yl)-6-{[(1R)-1-cyclobutylethyl]amino}-7-[4-(trifluoromethyl)benzyl] - 7H-purine-2-carboxylic acid], the IC50 turned out to be 16.5 nM.

`C[C@@H](Nc1nc(C(=O)O)nc2nc(-c3cc(OC4CCC4)ccn3)n(Cc3ccc(C(F)(F)F)cc3)c12)C1CCC1` [Example 1.45, 6-{[(1R)-1-cyclobutylethyl]amino}-8-[4-(cyclobutyloxy)pyridin-2-yl]-7-[4-(trifluoromethyl)benzyl]-7H-purine-2-carboxylic acid] had an IC50 of 50.8 nM.

In turn, `C[C@@H](Nc1nc(C(=O)O)nc2nc(-c3cc(C(F)F)ccn3)n(Cc3ccc(C(F)(F)F)cc3)c12)C1CCC1` [Example 1.46, 6-{[(1R)-1-cyclobutylethyl]amino}-8-[4-(difluoromethyl)pyridin-2-yl]-7-[4-(trifluoromethyl)benzyl]-7H-purine-2-carboxylic acid] gave an IC50 of 12.3 nM.

As for `C[C@@H](Nc1nc(C(=O)O)nc2nc(-c3cc(N(C)C)ccn3)n(Cc3ccc(C(F)(F)F)cc3)c12)C1CCC1` [Example 1.47, 6-{[(1R)-1-cyclobutylethyl]amino}-8-[4-(dimethylamino)pyridin-2-yl]-7-[4-(trifluoromethyl)benzyl]-7H-purine-2-carboxylic acid], the midpoint of inhibition, the IC50, lay at 16.4 nM.

`Cc1ccn(-c2ccnc(-c3nc4nc(C(=O)O)nc(N[C@H](C)C5CCC5)c4n3Cc3ccc(C(F)(F)F)cc3)c2)n1` [Example 1.48, 6-{[(1R)-1-cyclobutylethyl]amino}-8-[4-(3-methyl-1H-pyrazol-1-yl)pyridin-2-yl]-7-[4-(trifluoromethyl)benzyl]-7H-purine-2-carboxylic acid]: it took 2260 nM to reach half-maximal inhibition (IC50).

Compound `CC(C)c1ccnc(-c2nc3nc(C(=O)O)nc(N[C@H](C)C4CCC4)c3n2Cc2ccc(C(F)(F)F)c(F)c2)c1` [Example 1.49, 6-{[(1R)-1-cyclobutylethyl]amino}-7-[3-fluoro-4-(trifluoromethyl)benzyl] - 8-[4-(1-methylethyl)pyridin-2-yl]-7H-purine-2-carboxylic acid] came in with a concentration for half-maximal inhibition (IC50) of 3.52 nM.

Take `CC(C)c1ccnc(-c2nc3nc(C(=O)O)nc(N[C@@H](C)C4CCC4)c3n2Cc2ccc(C(F)(F)F)cc2)c1` [Example 1.50]: the IC50 was found to be 128 nM.

Regarding `C[C@@H](Nc1nc(C(=O)O)nc2nc(-c3cc(C4CC4)ccn3)n(Cc3ccc(C(F)(F)F)cc3)c12)C1CCC1` [Example 1.51, 6-{[(1R)-1-cyclobutylethyl]amino}-8-(4-cyclopropylpyridin-2-yl)-7-[4-(trifluoromethyl)benzyl]-7H-purine-2-carboxylic acid], half-maximal inhibition (IC50) required 8.39 nM.
